How the values were obtained:
[1] = Surface plasmon resonance (SPR) of biotin-labeled oligos with IAA; format: binding; settings: biotin labeled oligo on streptavidin sensor chip
Procedure: Surface plasmon resonance (SPR). To identify the binding activity of the metabolite IAA and S100A8 promoter sequence, SPR experiments were conducted on an OPENSPR™ (Nicoya, Lifesciences, CA). Experiments were performed on a streptavidin sensor (Nicoya, Lifesciences). SPR was run at a flow rate of 20 μl/min using HBS running buffer (20 mM HEPES, 150 mM NaCl, pH 7.4). First, the streptavidin sensor chip was cleaned with octyl β-D-glucopyranoside (40 mM) and CHAPS (20 mM). 200 μl of biotin-conjugated oligos (1 μg/ml, Table 5) were injected on the sensor chip for 10 minutes until a stable resonance was obtained. After immobilization of bio-oligo, the surface was blocked with BSA (3%) in running buffer. After a stable signal was obtained, IAA (10 nM) was run over the immobilized bio-oligo until a stable resonance was obtained. A negative control test was also performed by injecting IAA onto a blank sensor chip to check for non-specific binding. The sensograms were analyzed using TraceDrawer kinetic analysis software.

promoter of S100A8 = test: Chromatin immunoprecipitation assay with biotinylated IAA; format: binding, mouse; settings: BV2 genomic DNA
Procedure: Chromatin immunoprecipitation assay. To identify the interaction of IAA and promoter of S100A8, 1 mg of IAA was labeled with biotin using the EZ-Link NHS-PEG4 Biotinylation kit (Thermo Fisher Sci., #21455) and excess biotin was removed using a desalting column. Biotinylated IAA was incubated with microglia BV2 cells for 3 h at 37° C. following 37% formaldehyde (final 1%) in 1 ml PBS for one more hour for cross-linking. The cell lysate was collected in 1 ml of RIPA buffer and sonication was used to shear the chromatin into 0.5˜1 kb fragment. Streptavidin Dynabeads ([…]) were added to the DNA samples for 1 h at room temperature. PBS replaced the DNA and was incubated with the beads as the control to exclude non-specific interactions. After washing beads with PBS, biotinylated IAA was eluted from the beads with the biotin (4 mg/ml) in 25mMTris-HCL containing 0.3MNaCl (pH 8.5) as the elution buffer at room temperature for 1 h or 95° C. for 5 min. The supernatant was collected and the DNA was purified with acetic acid (2%, v/v) and dissolved into […] of H2O. Two ml of DNA was used in quantitative PCR reactions using the primers of S100A8-ChIP in Table 3.

microglial cells = test: FACS analysis of apoptotic bodies (ABs) in supernatants of cultured microglial cells; format: cell-based, mouse; settings: microglial cells isolated from young mice
Procedure: Flow cytometry. Isolated cells were incubated with blocking solution (0.5% BSA/PBS) for 15 minutes at 4° C. For surface staining, cells were stained with various antibodies at room temperature for 1 hour and then washed with PBS. Washed cells were stained for 40 minutes at 4° C. with the appropriate fluorochrome-conjugated antibodies in PBS with 2% FBS. Data were acquired using a BD FACSCalibur flow cytometer (BD Biosciences, San Jose, CA) and analyzed using FlowJo software (Tree Star Inc., Ashland, OR). The following antibodies purchased from Biolegend were used for flow cytometry: anti-CD11b (101208), anti-CD45 (103112) and FITC Annexin V (640945). For the ABs analysis, extracellular vesicles were collected. To recognize the ABs, as described previously, size gates set based on forward scatter (FSC) were applied in combination with Annexin V staining. From these vesicles total ABs were detected using Annexin V staining events.
Isolation of apoptotic bodies. Apoptotic bodies (ABs) were isolated from culture supernatants as previously described. Briefly, cell culture medium was harvested and cells were removed by pelleting at 335×g for 10 minutes. To remove cell-debris, supernatants were centrifuged at 1,000×g for 10 minutes, followed by another centrifugation at 2,000×g for 30 minutes to pellet ABs. Pelleted ABs were resuspended and washed with PBS.

Row | Compound | interaction with IAA (SPR) [1] | interaction with promoter of S100A8 genomic DNA (ChIP) (promoter of S100A8) | ABs released into the culture supernatants (microglial cells)
1 | S100p1-G: CTGTGGGCAG CTGGCCAAGC (SEQ ID NO: 8), S100A8 promoter −57 . . . −38 (DNA CTGTGGGCAGCTGGCCAAGC; chemistry not given here) | targeted by IAA |  | 
2 | CC(C)CCN [IAA, isoamylamine] |  | demonstrated | increase

Source: US20250136997A1, “COMPOSITIONS FOR SEQUESTERING ISOAMYL AMINE AND METHODS OF USE THEREFOR” (University of Louisville Research Foundation, Inc., priority 2023, published 2025)
